The results in this text go back to patent publication US20020156115A1, “Insecticidal and acaricidal composition, and methods of using the same” (AGRO-KANESHO CO., LTD., priority 1999, published 2002).

Holding throughout (assay type): in vivo
The subject of test [1] is two-spotted red spiders (Tetranychus telarius). Nature of the test: Acaricidal effect of a low concentration (12.5 ppm) on two-spotted red spiders. The settings on record: leaf immersion, female imagoes, fifth day after treatment, 25° C. The procedure:
(§1) A stem of green bean seedling having only one primary left was placed in a test tube (capacity: 50 ml) containing water. 15 female imagoes of two-spotted red spiders were put on each leaf. One day after, the leaf having the two-spotted red spiders was immersed (about 5 seconds) in the present insecticide diluted with water, which had been prepared according to the Preparation Example, (concentration: 500 ppm, repetition: twice). They were kept in a constant-temperature room at 25° C. On the fifth day after the treatment, the female imagoes on the leaf of the green bean seedling were observed. The imago-killing rate (%) was determined on the basis of the results of the observation to obtain the results shown in Table 6.
Acaricidal Effect of a Low Concentration of Acaricide on Larvae of Two-Spotted Red Spiders (Tetranychus telarius)
The same tests as those of Test Example 2 were repeated except that the concentration of the acaricide was changed to 12.5 ppm.

Test [2] has the same test system. The experiment in a line: Acaricidal effect on two-spotted red spiders, imago-killing rate, 500 ppm leaf immersion. The settings on record: female imagoes on green bean leaf, leaf immersion about 5 seconds, concentration 500 ppm, fifth day after treatment, 25° C. The procedure:
as §1, with “Acaricidal Effect on Larvae of Two-Spotted Red Spiders (Tetranychus telarius): A” for “A”

For test [3], the system named is eggs of two-spotted red spiders (Tetranychus telarius). The experiment in a line: Acaricidal effect on eggs of two-spotted red spiders, ovicidal rate, 500 ppm spray. The settings on record: eggs on green bean leaf disc; spray 3.5 ml; concentration 500 ppm; 8 days after treatment. How it is done: Acaricidal Effect on Eggs of Two-Spotted Red Spiders (Tetranychus telarius) 5 female imagoes of two-spotted red spiders were released on a green been leaf disc (diameter: 3 cm). Then, the imagoes were left to lay eggs on the leaf disc for 20 hours and then removed therefrom. The present acaricide which had been prepared according to Preparation Example 1 was diluted with water to a predetermined concentration. 3.5 ml of the preparation thus obtained was sprayed with a rotary spraying column (Mizuho Rika) over the disc (concentration: 500 ppm, repetition: twice). 8 days after the treatment, the number of unhatched eggs was counted to determine the ovicidal rate (%).

Test [4] concerns diamond backmoth (Plutella xylostera). The experiment in a line: Insecticidal effect on larvae of diamond backmoth (cabbage leaf dip). The settings on record: 500 ppm; cabbage leaf immersed 1 minute; third-instar larvae; fourth day; 25° C. The procedure:
Insecticidal Effect on Larvae of Diamond Backmoth (Plutella xylostera) The present insecticide prepared according to the Preparation Example was diluted with water. A piece (diameter: 6 cm) of a cabbage leaf was immersed in the diluted insecticide for 1 minute. After air drying, the piece was placed in a plastic cup (inner diameter: 7 cm). 5 third-instar larvae of diamond backmoth (Plutella xylostera) were put in the cup (1 concentration, repetition: twice). The cup was kept in a constant temperature room at 25° C. On the fourth day, the survival rate and degree of writhing of the larvae were examined. The writhing larvae were each counted to be ½.

For `CCn1nc(C)c(C#Cc2cc(C(F)(F)F)cc(C(F)(F)F)c2)c1/C(=C/OC)C(=O)OC` [Table 1-22], the acaricidal effect in test [1] is given as 100%. Besides, the “Acaricidal rate (%)” value in test [2] worked out at 100%. Also, the “Ovicidal rate (%)” value in test [3] was determined as 100%. The Killing rate in test [4] turned out to be 90%.

For the compound `CO/C=C(/C(=O)OC)c1c(C#Cc2ccc(OC(F)(F)F)cc2)c(C)nn1C` [Table 1-29], the acaricidal effect in test [1] was determined as 100%. In addition, the “Acaricidal rate (%)” value in test [2] is reported as 100%. The “Ovicidal rate (%)” value in test [3] was determined as 100%. The Killing rate in test [4] is 85%.

With `CO/C=C(/C(=O)OC)c1c(OCc2cc(C(F)(F)F)cc(C(F)(F)F)c2)c(C)nn1C` [Table 2-1], the acaricidal effect in test [1] was found to be 100%. Also, the “Acaricidal rate (%)” value in test [2] was determined as 100%. Also, the “Ovicidal rate (%)” value in test [3] stood at 100%. The same compound had a Killing rate in test [4] of 87%.
